Holding throughout (type): in vivo
For one assay, the system named is Ipomoea. Kind of assay: Pre-emergence test (greenhouse), herbicidal action. The procedure:
(§1) Experiment Description—Pre-emergence Test:
(§2) The test plants are sown in standard soil in plastics pots under greenhouse conditions. Directly after sowing, the test compounds are applied in aqueous suspension (500 liters of water/ha). The test plants are then grown on in the greenhouse under optimum conditions. The rates of application depend on the optimum doses ascertained under field conditions and greenhouse conditions. The tests are evaluated after 26 days (% action, 100%=plants have died, 0%=no phytotoxic action).

In a further assay the test system is Polygonum. Kind of assay: Pre-emergence test (greenhouse), herbicidal action. The procedure: as §1, §2
Another assay concerns Xanthium. Kind of assay: Pre-emergence test (greenhouse), herbicidal action. The method, then:
as §1, §2

The subject of the next assay is Digitaria. Kind of assay: Post-emergence test (greenhouse), herbicidal action. The conditions noted are these: halosulfuron 100 g/ha, after 20 days. The method, then: (§3) Experiment Description—Post-emergence Test:
(§4) The test plants are grown to the 2- to 3-leaf stage in plastics pots under greenhouse conditions. A standard soil is used as cultivation substrate. At the 2- to 3-leaf stage, the herbicide is applied to the test plants on its own and as a mixture. The application is carried out using an aqueous suspension of the test compounds in 500 liters of water/ha. The rates of application depend on the optimum doses ascertained under field conditions and greenhouse conditions. The tests are evaluated after 20 days (% action, 100%=plant has died, 0%=no phytotoxic action).

The next assay has as its system Cyperus. Described as above. The conditions noted are these: primisulfuron 20 g/ha, after 20 days. The procedure: as §3, §4
Setting [1] is: atrazine 200 g/ha, after 26 days (Table 7).
Where [2] appears, read: atrazine 200 g/ha, after 26 days (Table 5).
Setting [3] is: terbuthylazine 200 g/ha, after 26 days (Table 4).
Setting [4] is: terbuthylazine 200 g/ha, after 26 days (Table 6).

Regarding `CCNc1nc(Cl)nc(NC(C)C)n1` [Atrazine, atrazine], the “% action” value with Ipomoea (setting [1]) was found to be 70%; with Polygonum (setting [2]), 90%; with Xanthium (setting [2]) it was 0%; with Xanthium (setting [1]) it was 0%.
For `COc1cc(OC)nc(NC(=O)NS(=O)(=O)c2c(C(=O)O)c(Cl)nn2C)n1` [Halosulfuron, halosulfuron], in the assay with Digitaria, the “% action” value is 25%.
As to `O=C(Nc1nc(OC(F)F)cc(OC(F)F)n1)NS(=O)(=O)c1ccccc1C(=O)O` [Primisulfuron, primisulfuron], the “% action” value with Cyperus turned out to be 90%.
Take `CCNc1nc(Cl)nc(NC(C)(C)C)n1` [Terbuthylazine, terbuthylazine]: the “% action” value in the assay on Ipomoea (setting [3]) stood at 30%; in the assay on Ipomoea (setting [4]) it was 30%; in the assay on Polygonum (setting [3]), 60%; in the assay on Polygonum (setting [4]), 60%; in the assay on Xanthium (setting [3]), 0%; with Xanthium (setting [4]) it was 0%.

(Values after patent US20010044382A1, “Herbicide” (priority 1998, published 2001).)
